Data from US20120321571A1, “PARABEN COMPOSITIONS” (ANTERIOS, INC., priority 2011, published 2012).

System: axillary sweating
Experiment: Clinical study of the effect of Propylparaben on axillary sweating (gravimetric sweat measurement)
Type: in vivo, human

Q: Which results are given for CCCOC(=O)c1ccc(O)cc1 [Propylparaben]?
A: greater effectiveness in reducing sweat production than placebo (by responder assessment) (based on percent of subjects with at least 30% reduction versus Baseline, versus placebo (water)): 245%; conclusion on activity in reducing sweat production (overall conclusion of the clinical study): biologically active in reducing sweat production; reduction in sweat production (average), gravimetric sweat measurement (subjects with moderate to severe primary axillary hyperhidrosis, single topical treatment, 0.20 mg per axilla, two weeks after treatment, 5 minute collection): 177 mg; percent of subjects with at least a 30% reduction in sweat production compared to Baseline (two weeks after single topical treatment, 0.20 mg per axilla, gravimetric sweat measurement): 70%; greater reduction in sweat production than the control (placebo) group (two weeks after single topical treatment, 0.20 mg per axilla, versus placebo (water)): 337%
